{"source": "paper PMC12678337", "about": "“EAR-20 peptide, a novel NMDA receptor positive allosteric modulator” (Frontiers in Pharmacology, 2025)", "key": {"[1]": {"test_system": "synaptic NMDARs, cultured hippocampal neurons", "type": "cell-based, rat"}, "[2]": {"test_system": "triheteromeric NMDARs (GluN1, GluN2A, GluN2B)", "settings": "cited from earlier work"}, "GluN1-GluN2A receptors": {"test_system": "GluN1-GluN2A receptors", "settings": "channel blocker; ref Wang et al., 2021; cited from earlier work"}, "NMDARs": {"test_system": "NMDARs", "set-up": "method as in 3 sources, one per row (each row's own in cited_ref): ref Johnson and Ascher, 1987 ||| ref Chopra et al., 2015 ||| ref Lerma, 1992", "settings": "cited from earlier work"}, "GluN1-GluN2B^ΔNTD": {"test_system": "GluN1-GluN2B^ΔNTD", "assay": "whole-cell patch clamp, ifenprodil inhibition of NTD-deleted GluN1-GluN2B", "type": "cell-based", "settings": "10 µM ifenprodil co-applied with agonists; HEK-293"}, "GluN1-GluN2B": {"target": "T1, GluN1-GluN2B (Rattus norvegicus, UniProt P35439+Q00960)", "T1 construct": "GFP (N); expressed in transfected cells; host or cells: HEK-293T", "T1 sequence (Q00960 27-1482, other chains not shown)": "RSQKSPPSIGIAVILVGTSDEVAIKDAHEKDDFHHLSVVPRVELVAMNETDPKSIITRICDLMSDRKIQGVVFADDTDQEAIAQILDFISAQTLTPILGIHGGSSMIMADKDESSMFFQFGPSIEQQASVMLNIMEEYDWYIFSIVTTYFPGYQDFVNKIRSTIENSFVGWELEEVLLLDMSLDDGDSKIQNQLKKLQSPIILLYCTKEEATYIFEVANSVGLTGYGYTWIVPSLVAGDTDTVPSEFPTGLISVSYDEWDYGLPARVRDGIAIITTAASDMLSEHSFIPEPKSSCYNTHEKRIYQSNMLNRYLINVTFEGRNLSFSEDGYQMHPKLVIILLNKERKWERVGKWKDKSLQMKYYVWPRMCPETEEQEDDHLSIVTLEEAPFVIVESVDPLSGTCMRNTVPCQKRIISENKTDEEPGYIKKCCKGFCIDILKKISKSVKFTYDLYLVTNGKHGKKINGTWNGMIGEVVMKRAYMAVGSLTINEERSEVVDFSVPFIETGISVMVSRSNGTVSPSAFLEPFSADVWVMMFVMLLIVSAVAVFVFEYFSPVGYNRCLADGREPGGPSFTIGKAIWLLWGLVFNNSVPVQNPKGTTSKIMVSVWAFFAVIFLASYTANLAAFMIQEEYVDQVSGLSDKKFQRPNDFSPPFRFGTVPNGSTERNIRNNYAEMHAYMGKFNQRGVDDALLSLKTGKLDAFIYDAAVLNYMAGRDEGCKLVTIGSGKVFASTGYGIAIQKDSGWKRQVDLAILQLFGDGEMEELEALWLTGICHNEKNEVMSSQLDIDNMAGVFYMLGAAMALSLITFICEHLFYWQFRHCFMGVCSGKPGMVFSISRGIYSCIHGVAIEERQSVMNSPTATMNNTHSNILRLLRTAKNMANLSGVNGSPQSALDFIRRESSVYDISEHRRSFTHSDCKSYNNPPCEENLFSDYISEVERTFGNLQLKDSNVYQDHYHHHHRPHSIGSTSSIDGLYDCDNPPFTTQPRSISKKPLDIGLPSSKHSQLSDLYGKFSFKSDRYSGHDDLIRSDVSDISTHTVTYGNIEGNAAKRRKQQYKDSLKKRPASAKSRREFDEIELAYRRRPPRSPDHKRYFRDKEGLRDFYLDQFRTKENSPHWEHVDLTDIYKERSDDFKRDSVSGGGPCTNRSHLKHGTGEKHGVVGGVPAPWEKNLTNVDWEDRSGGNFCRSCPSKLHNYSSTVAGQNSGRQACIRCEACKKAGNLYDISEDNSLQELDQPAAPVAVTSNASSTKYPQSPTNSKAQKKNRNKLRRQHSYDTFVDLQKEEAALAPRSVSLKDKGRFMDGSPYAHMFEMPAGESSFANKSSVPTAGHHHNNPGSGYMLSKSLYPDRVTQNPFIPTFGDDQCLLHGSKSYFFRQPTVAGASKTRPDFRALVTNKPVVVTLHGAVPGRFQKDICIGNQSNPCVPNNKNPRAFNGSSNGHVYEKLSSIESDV", "type": "cell-based"}, "[3]": {"test_system": "GluN2B-containing di-heteromers", "settings": "ref Kellner and Berlin, 2024; cited from earlier work"}}, "note": "No end group written: not given here.", "data": [{"compound": "CC12CC3CC(C)(C1)CC(N)(C3)C2", "note": "[memantine]", "values": [{"measurement": "effect on EPSCs", "setting": "[1]", "value": "abolished"}, {"measurement": "affinity for triheteromeric NMDARs", "setting": "[2]; compared to NMDARs containing only GluN2B, ref Chen et al., 2020", "value": "lower affinity for triheteromeric NMDARs"}]}, {"compound": "Nc1c2ccccc2nc2ccccc12", "note": "[9-aminoacridine]", "values": [{"measurement": "current following removal", "setting": "GluN1-GluN2A receptors", "value": "a transient inward current"}]}, {"compound": "pregnenolone sulfate", "values": [{"measurement": "tail-like response on removal of modulator", "setting": "NMDARs", "value": "tail-like response"}]}, {"compound": "CC(C(O)c1ccc(O)cc1)N1CCC(Cc2ccccc2)CC1", "note": "(stereo not shown) [ifenprodil]", "values": [{"measurement": "inhibition of agonist-evoked current", "setting": "GluN1-GluN2B^ΔNTD", "value": "no inhibitory effect was observed"}]}, {"compound": "N[C@@H](CCC(=O)O)C(=O)O", "note": "[glutamate, L-glutamate, reference compound]", "values": [{"measurement": "response to glutamate alone", "setting": "GluN1-GluN2B", "value": "generated a significant current response"}, {"measurement": "activation by glutamate alone", "setting": "NMDARs; ref Johnson and Ascher, 1987", "value": "slightly activate the channel"}]}, {"compound": "NCCCNCCCCNCCCN", "note": "[spermine]", "values": [{"measurement": "potentiation of GluN2B-containing di-heteromers", "setting": "[3]", "value": "strongly potentiates GluN2B-containing di-heteromers"}, {"measurement": "enhancement of triheteromeric NMDARs", "setting": "[2]; ref Kellner and Berlin, 2024", "value": "fails to enhance triheteromeric NMDARs"}]}, {"compound": "Con-G: marine cone snail toxin, NMDAR antagonist targeting the GluN2B ligand binding domain (GEEELQENQELIREKSN; not fully specified (residues 3, 4, 7, 10, 14, C-terminus); ends and bridges not checked; UniProt P07231 81-97, looked up)", "values": [{"measurement": "NMDAR activity", "setting": "NMDARs", "value": "NMDAR antagonist"}]}]}
